Assay results taken from PubChem BioAssay AID330 (DTP/NCI, 2004).
“And” between values parts separate entries of the source, which are not always exact repeats. Identical values can stand only once. Toxic doses and inconclusive results are not listed.

Test system: P388 leukemia ip, CD2F1 mice, survival T/C
Experiment: NCI In Vivo Anticancer Drug Screen. Data for tumor model P388 Leukemia (intraperitoneal) in CD2F1 (CDF1) mice
Conditions: endpoint: median survival time, higher = longer survival
In short: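 Mice carrying the transplanted tumor received test compound or vehicle. Survival was recorded in each group, and the value is the treated-group measurement divided by that of the vehicle-treated control group.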

[1] = dose: 25.0 mg/kg/injection, schedule: Q01DX005 (ip), vehicle: Klucel (hydroxypropylcellulose) (HPC)
[2] = dose: 50.0 mg/kg/injection, schedule: Q01DX005 (ip), vehicle: Klucel (hydroxypropylcellulose) (HPC)
[3] = dose: 100.0 mg/kg/injection, schedule: Q01DX005 (ip), vehicle: Klucel (hydroxypropylcellulose) (HPC)
[4] = dose: 200.0 mg/kg/injection, schedule: Q01DX005 (ip), vehicle: Klucel (hydroxypropylcellulose) (HPC)
[5] = dose: 100.0 mg/kg/injection, schedule: Q04DX003 (ip), vehicle: saline
[6] = dose: 200.0 mg/kg/injection, schedule: Q04DX003 (ip), vehicle: saline
[7] = dose: 400.0 mg/kg/injection, schedule: Q04DX003 (ip), vehicle: saline
[8] = dose: 60.0 mg/kg/injection, schedule: Q01DX005 (ip), vehicle: saline with Tween-80
[9] = dose: 120.0 mg/kg/injection, schedule: Q01DX005 (ip), vehicle: saline with Tween-80
[10] = dose: 240.0 mg/kg/injection, schedule: Q01DX005 (ip), vehicle: saline with Tween-80
[11] = dose: 25.0 mg/kg/injection, schedule: Q01DX009 (ip), vehicle: saline with Tween-80
[12] = dose: 50.0 mg/kg/injection, schedule: Q01DX009 (ip), vehicle: saline with Tween-80
[13] = dose: 12.5 mg/kg/injection, schedule: Q01DX005 (ip), vehicle: saline with Tween-80
[14] = dose: 50.0 mg/kg/injection, schedule: Q01DX005 (ip), vehicle: saline with Tween-80
[15] = dose: 100.0 mg/kg/injection, schedule: Q01DX005 (ip), vehicle: saline with Tween-80
[16] = dose: 50.0 mg/kg/injection, schedule: Q01DX009 (ip), vehicle: Klucel (hydroxypropylcellulose) (HPC)
[17] = dose: 100.0 mg/kg/injection, schedule: Q01DX009 (ip), vehicle: Klucel (hydroxypropylcellulose) (HPC)
[18] = dose: 200.0 mg/kg/injection, schedule: Q01DX009 (ip), vehicle: Klucel (hydroxypropylcellulose) (HPC)
[19] = dose: 50.0 mg/kg/injection, schedule: Q01DX009 (ip), vehicle: saline
[20] = dose: 100.0 mg/kg/injection, schedule: Q01DX009 (ip), vehicle: saline
[21] = dose: 200.0 mg/kg/injection, schedule: Q01DX009 (ip), vehicle: saline
[22] = dose: 25.0 mg/kg/injection, schedule: Q04DX003 (ip), vehicle: saline
[23] = dose: 50.0 mg/kg/injection, schedule: Q04DX003 (ip), vehicle: saline
[24] = dose: 100.0 mg/kg/injection, schedule: Q01DX009 (ip), vehicle: saline with Tween-80

CN(C)C1C(=O)C(C(N)=O)=C(O)C2(O)C(=O)C3=C(O)c4c(O)cccc4C(C)(O)C3CC12 (stereo not drawn)
T/C [1]: 94 % of control | T/C [2]: 95 % of control | T/C [3]: 95 % of control

CC(=O)Nc1ccc(S(=O)(=O)n2c(=O)oc3ccc(Br)cc32)cc1
T/C [2]: 98 % of control | T/C [3]: 100 % of control | T/C [4]: 99 % of control

O=C(O)c1ccccc1Oc1ccccc1C(=O)O
T/C [5]: 100 % of control | T/C [6]: 100 % of control | T/C [7]: 100 % of control

Cn1c(=O)c2c(nc(/N=C/c3cccc([N+](=O)[O-])c3)n2C)n(C)c1=O
T/C [5]: 100 % of control | T/C [6]: 94 % of control | T/C [7]: 86 % of control

O=C(c1ccccc1)C1(c2ccccc2)CCCCC1
T/C [8]: 94 % of control | T/C [9]: 94 % of control | T/C [10]: 86 % of control

CCC[CH2][Sn]([CH2]CCC)[S]CC(N)C(=O)O (stereo not drawn)
T/C (dose: 0.16 mg/kg/injection, schedule: Q01DX005 (ip), vehicle: Klucel (hydroxypropylcellulose) (HPC)): 107 % of control | T/C (dose: 0.23 mg/kg/injection, schedule: Q01DX005 (ip), vehicle: Klucel (hydroxypropylcellulose) (HPC)): 108 % of control | T/C (dose: 0.46 mg/kg/injection, schedule: Q01DX005 (ip), vehicle: Klucel (hydroxypropylcellulose) (HPC)): 103 % of control and 104 % of control | T/C (dose: 0.93 mg/kg/injection, schedule: Q01DX005 (ip), vehicle: Klucel (hydroxypropylcellulose) (HPC)): 117 % of control | T/C (dose: 3.75 mg/kg/injection, schedule: Q01DX005 (ip), vehicle: Klucel (hydroxypropylcellulose) (HPC)): 108 % of control

C[C@H](CSC(=O)c1ccccc1)C(=O)N1c2ccccc2C[C@H]1C(=O)O
T/C (dose: 60.0 mg/kg/injection, schedule: Q01DX005 (ip), vehicle: saline + Tween-80 + alcohol): 102 % of control | T/C (dose: 120.0 mg/kg/injection, schedule: Q01DX005 (ip), vehicle: saline + Tween-80 + alcohol): 102 % of control | T/C (dose: 240.0 mg/kg/injection, schedule: Q01DX005 (ip), vehicle: saline + Tween-80 + alcohol): 104 % of control

CC1(C)C(O)C(C)(C)C1O (stereo not drawn)
T/C (dose: 12.5 mg/kg/injection, schedule: Q01DX009 (ip), vehicle: saline with Tween-80): 100 % of control | T/C [11]: 100 % of control | T/C [12]: 100 % of control

CC(C)OC(=O)CC1NS(=O)(=O)c2ccccc21 (stereo not drawn)
T/C (dose: 50.0 mg/kg/injection, schedule: Q01DX005 (ip), vehicle: suspension in saline): 103 % of control | T/C (dose: 100.0 mg/kg/injection, schedule: Q01DX005 (ip), vehicle: suspension in saline): 103 % of control | T/C (dose: 200.0 mg/kg/injection, schedule: Q01DX005 (ip), vehicle: suspension in saline): 100 % of control

C/C(=N\NC(=S)N1CCN(Cc2ccccc2)CC1)c1ccccn1
T/C (dose: 3.13 mg/kg/injection, schedule: Q01DX005 (ip), vehicle: saline with Tween-80): 118 % of control | T/C [13]: 152 % of control

CC(=S)NC(O)C(=O)c1ccccc1 (stereo not drawn)
T/C [12]: 121 % of control

O=C(Cc1cccc2c(=O)cc(-c3ccccc3)oc12)OCCO
T/C [1]: 100 % of control | T/C [2]: 103 % of control and 91 % of control | T/C [3]: 100 % of control and 110 % of control | T/C [4]: 120 % of control

CCCCc1noc(N)c1SCC
T/C [14]: 105 % of control | T/C [15]: 103 % of control | T/C (dose: 200.0 mg/kg/injection, schedule: Q01DX005 (ip), vehicle: saline with Tween-80): 107 % of control

COc1cc(/C=C(\Cc2ccc(OC)c(OCc3ccccc3)c2)[N+](=O)[O-])ccc1OCc1ccccc1
T/C [16]: 89 % of control | T/C [17]: 87 % of control | T/C [18]: 88 % of control

O=C1c2ccccc2C(=O)c2c1cccc2-c1ccccc1
T/C [2]: 86 % of control | T/C [3]: 87 % of control | T/C [4]: 88 % of control

CCCCOc1cc(C(=O)NCCN(C)C)c2ccccc2n1
T/C (dose: 7.5 mg/kg/injection, schedule: Q01DX005 (ip), vehicle: saline with Tween-80): 104 % of control | T/C (dose: 15.0 mg/kg/injection, schedule: Q01DX005 (ip), vehicle: saline with Tween-80): 106 % of control | T/C (dose: 30.0 mg/kg/injection, schedule: Q01DX005 (ip), vehicle: saline with Tween-80): 106 % of control

O=C1C(=O)N(c2ccccc2Cl)C(=O)N1Cc1ccccc1
T/C [16]: 95 % of control | T/C [17]: 98 % of control | T/C [18]: 91 % of control

O=S(=O)(c1ccccc1)C(SC(=S)Sc1ccccc1)Sc1ccccc1 (stereo not drawn)
T/C (dose: 12.5 mg/kg/injection, schedule: Q01DX009 (ip), vehicle: saline): 104 % of control | T/C (dose: 25.0 mg/kg/injection, schedule: Q01DX009 (ip), vehicle: saline): 107 % of control | T/C [12]: 114 % of control | T/C [19]: 96 % of control

CCOC1CN(C(=O)OC)N1C(=O)OC (stereo not drawn)
T/C [19]: 100 % of control | T/C [20]: 107 % of control | T/C [21]: 105 % of control

O=C(NNC1=NCCN1Cc1ccccc1)c1cccc(Cl)c1
T/C [16]: 100 % of control | T/C [17]: 100 % of control | T/C [18]: 100 % of control

COC(=O)C(=O)C(C#N)c1ccc(OC)c(OC)c1 (stereo not drawn)
T/C [8]: 99 % of control | T/C [9]: 104 % of control | T/C [10]: 95 % of control

CC1(C)CC(=O)C(C2=NCCCC2)=C(O)C1
T/C (dose: 100.0 mg/kg/injection, schedule: Q04DX002 (ip), vehicle: saline with Tween-80): 102 % of control | T/C (dose: 200.0 mg/kg/injection, schedule: Q04DX002 (ip), vehicle: saline with Tween-80): 100 % of control | T/C (dose: 400.0 mg/kg/injection, schedule: Q04DX002 (ip), vehicle: saline with Tween-80): 100 % of control

C=CCOC(=O)C12CCC(C)(C)CC1C1=CCC3C4(C)CCC(O)C(C)(CO)C4CCC3(C)C1(C)CC2 (stereo not drawn)
T/C (dose: 3.0 mg/kg/injection, schedule: Q01DX005 (ip), vehicle: saline with Tween-80): 111 % of control | T/C (dose: 6.0 mg/kg/injection, schedule: Q01DX005 (ip), vehicle: saline with Tween-80): 114 % of control | T/C (dose: 12.0 mg/kg/injection, schedule: Q01DX005 (ip), vehicle: saline with Tween-80): 100 % of control | T/C [13]: 92 % of control

O=C(Nc1ccccc1)/C(N=Nc1ccc([N+](=O)[O-])cc1Cl)=N/Nc1ccc([N+](=O)[O-])cc1Cl
T/C [2]: 111 % of control | T/C [3]: 109 % of control

CCSSC1(C)C(=O)N2CCCC2C(=O)N1C (stereo not drawn)
T/C [22]: 109 % of control | T/C [23]: 103 % of control | T/C [5]: 104 % of control

O=C1NC(=O)C2C1C1C(=O)NC(=O)C21 (stereo not drawn)
T/C [11]: 94 % of control | T/C [12]: 94 % of control | T/C [24]: 103 % of control

O=C1OC(=O)C2C3OC(C(Br)C3Br)C12 (stereo not drawn)
T/C [2]: 102 % of control | T/C [3]: 98 % of control

Cc1cnc(Sc2ncccc2[N+](=O)[O-])nc1
T/C [19]: 109 % of control | T/C [20]: 109 % of control | T/C [21]: 116 % of control

COc1cc(C)c(OC)c(CC=C(C)CC(=O)C[C@@]2(C)CCC[C@@]2(C)C(=O)CCC(C)(C)O)c1 (mixture of isomers)
T/C (dose: 25.0 mg/kg/injection, schedule: Q01DX005 (ip), vehicle: saline with Tween-80): 93 % of control | T/C [14]: 91 % of control | T/C [15]: 95 % of control

O=C(Cn1ccnc1)N1CCN(c2ccccc2)CC1
T/C [8]: 100 % of control | T/C [9]: 94 % of control | T/C [10]: 96 % of control

COc1cccc2c1C(=O)c1c(O)c3c(c(O)c1C2=O)C[C@@](O)(C(=O)CO)CC3OC1CC(O)C(O)C(C)O1 (stereo partly drawn)
T/C (dose: 6.25 mg/kg/injection, schedule: Q04DX003 (ip), vehicle: saline): 122 % of control | T/C (dose: 12.5 mg/kg/injection, schedule: Q04DX003 (ip), vehicle: saline): 165 % of control | T/C [22]: 183 % of control | T/C [23]: 209 % of control

Cc1nc2ccc(N(C)C)cc2c2c1Cc1c(C)nc3ccc(N(C)C)cc3c1O2
T/C [8]: 88 % of control | T/C [9]: 88 % of control | T/C [10]: 94 % of control

Cc1cc(=O)c2cc3nc(-c4cccnc4)oc3c(Br)c2o1
T/C [2]: 97 % of control | T/C [3]: 96 % of control | T/C [4]: 88 % of control

Clc1ccccc1N=NN1CCN(c2ccccc2)CC1
T/C [12]: 88 % of control | T/C [24]: 102 % of control | T/C (dose: 200.0 mg/kg/injection, schedule: Q01DX009 (ip), vehicle: saline with Tween-80): 93 % of control
